These results are taken from patent US20130165635A1 (priority 2010, published 2013).

Numbered stars: 1 amine (or outer) side, 2 acyl side, 3 side chain; on linkers, the order of the positions; unused ones are H or OH. Bridge positions count the residues as written; N and C are the ends. Square brackets hold non-standard residues; d marks the D form. Peptide text beside a SMILES is read from it. X1 = CC(C)CCCCCCCCC[C@H](CC(=O)[*:1])O[*:2]

Format in all cases: cell-based
Experiment [1] deals with Fusarium oxysporum.
In experiment [2] the test system is Magnaporthe grisea. The following applies: 1.56 to 12.56 μg/mL, 100 μL in cup, 25° C. for 1 to 3 days.
Experiment [3] has as its system Trichophyton mentagrophytes.

For the molecule `CC(C)CCCCCCCCC[C@@H]1CC(=O)N[C@@H](CCC(=O)O)C(=O)N[C@@H](CC(C)C)C(=O)N[C@H](CC(C)C)C(=O)N[C@@H](C(C)C)C(=O)N[C@@H](CC(=O)O)C(=O)N[C@H](CC(C)C)C(=O)N[C@@H](CC(C)C)C(=O)O1` [surfactin] (EL[dL]VD[dL]L; linker N-C via X1), the “antifungal activity (growth inhibition of test microorganism)” value in experiment [1] is on record as “did not show antifungal activity”; in experiment [2], “weaker than iturin A, but slight inhibitory activities”.
With iturin A, the “antifungal activity (growth inhibition of test microorganism)” value in experiment [1] was “strong antifungal activity”; in experiment [2], “strong antifungal activities”; in experiment [3] it was “strong antifungal activities”.
